Test results: US10918683B2, “Methods to reduce fat accumulation and oxidative damage in liver using green mango extracts and compounds obtained therefrom” (TCI CO., LTD., priority 2018, dated 2021)

System: HepG2 cells
Experiment: Oil red O staining of fat accumulation in oleic acid-treated HepG2 cells
Assay type: cell-based, human
Settings: 10 μg/mL compound (dissolved in DMSO)
Description: HepG2 cells were cultured at 37° C. under 5% carbon dioxide in DMEM supplemented with 10% FBS and 1% penicillin/streptomycin, hereinafter referred to as DMEM culture medium.
To prepare the oil red O staining solution, the dye, oil red O, was first dissolved in 100% isopropanol thoroughly to prepare a 30 mg/mL oil red O stock solution. To obtain a ready-to-use oil red O staining solution, the stock solution was diluted with double deionized water to a concentration of 18 mg/mL and filtered through a 0.22 μm filter immediately before use.
To obtain a DMEM containing oleic acid-BSA conjugate, 10 mg/mL BSA and 28 μg/mL oleic acid were added to a DMEM with 2% FBS and 1% penicillin/streptomycin. The resulting mixture was stirred for about 30 minutes to facilitate the conjugation between oleic acid and BSA and the formation of conjugates.
The neutral fat content of cells was determined by oil red O staining. Prior to staining, the cells after indicated treatment were washed with PBS and then fixed with 10% formaldehyde for 30 minutes. The fixed cells were washed once with PBS and rinsed with 50% isopropanol for 15 seconds. Thereafter, the cells were stained with the oil red O staining solution for 1 hour. […] Alternatively, the intracellular dye was dissolved with 100% isopropanol and quantified by spectrophotometry. […]

| SMILES | reduction of fat accumulation in HepG2 cells compared with oleic acid alone |
| --- | --- |
| O=C(OCC1OC(OC(=O)c2cc(O)c(O)c(O)c2)C(OC(=O)c2cc(O)c(O)c(O)c2)C(OC(=O)c2cc(O)c(O)c(O)c2)C1OC(=O)c1cc(O)c(O)c(O)c1)c1cc(O)c(O)c(O)c1 (centres unmarked) [formula (Ib), 1,2,3,4,6-penta-O-galloyl-glucopyranoside] | ~44% |
| O=C(OCC1OC(OC(=O)c2cc(O)c(O)c(O)c2)C(OC(=O)c2cc(O)c(O)c(O)c2)C(OC(=O)c2cc(O)c(O)c(O)c2)C1OC(=O)c1cc(O)c(O)c(O)c1)c1ccc(O)cc1 (centres unmarked) [formula (Ia)] | approximately 33% |
